From patent US20220047507A1, “MELFLUFEN DOSAGE REGIMENS FOR CANCER” (ONCOPEPTIDES AB, priority 2015, published 2022)

Assays:
[1] = test system: relapsed-refractory multiple myeloma (RRMM) patients; test: Safety in patients with RRMM, Example 2b, time point (bii); assay type: in vivo, human
Procedure: Example 2: An open label single arm extension on the dose of 40 mg over 30 minutes of Example 1. Intravenous melflufen was administered over 30 minutes on Day 1 of a 21-day cycle or 28-day cycle (in combination with 40 mg dexamethasone (oral or intravenous) treatment on Days 1, 8 and 15) for at least 2 cycles, and up to the stated number of cycles. The cycle length was extended during the Example 2 Clinical Trial from 21 to 28 days per a protocol amendment to allow for a better recovery of neutrophils and thrombocytes before a new cycle is initiated.
Dose reductions from 40 mg to 25 mg melflufen for patients in the trial was possible in connection with adverse effects of thrombocytopenia/neutropenia.
Example 2a results are from a data cut-off of time point (a). Example 2b results are from a data cut-off of time point (bi) for the efficacy data, which was approximately 12 months after time point (a); and from a data cut-off of time point (bii) for the safety data, which was approximately 10 months after time point (a).
By the data cut-off point for safety data (time point (bii)) 40 patients has been dosed with 183 doses of melflufen hydrochloride 40 mg over 30 minutes. A total of 11 patients had dose reductions from 40 mg to 25 mg melflufen during the study. All dose reductions were in connection with AEs of thrombocytopenia/neutropenia. Seven (7) patients (64%) had dose reductions in connection to thrombocytopenia, 3 patients to neutropenia (27%) and 1 patient (9%) to both thrombocytopenia and neutropenia.

[2] = test system: primary MM cells from patients; conditions: in vitro, incl. patients relapsing after bortezomib, lenalidomide, dexamethasone; cited from earlier work
[3] = 40 mg melflufen (+dex) treated patients
[4] = 40 mg treated patients, Example 2b
[5] = 40 mg, Example 2b N = 40, listed as melflufen hydrochloride
[6] = Cycle length 21 days, 30 patients, 87 cycles
[7] = Cycle length 28 days, 10 patients, 24 cycles
[8] = of the 11 patients with dose reductions
[9] = of the 40 safety evaluable patients

## CCOC(=O)[C@H](Cc1ccc(F)cc1)NC(=O)[C@@H](N)Cc1ccc(N(CCCl)CCCl)cc1.Cl [melflufen, L-Melphalanyl-4-fluoro-L-phenylalanine ethyl ester]
[1]; [3]
  Grade 3 and 4 febrile neutropenia regardless of relationship: 5%
  Grade 3 and 4 lower respiratory tract infection regardless of relationship: 2%
  Grade 3 and 4 lower respiratory tract infection regardless of relationship, n patients: 1
  Grade 3 and 4 neutropenia regardless of relationship, n patients: 23
  Grade 3 and 4 parainfluenza virus infection regardless of relationship: 2%
  Grade 3 and 4 parainfluenza virus infection regardless of relationship, n patients: 1
  Grade 3 and 4 pneumonia regardless of relationship: 10%
[1]; [4]
  Grade 3/4 hyperglycemia (reported as treatment-related to dexamethasone): 10%
  Grade 3/4 hyperglycemia (reported as treatment-related to dexamethasone), n patients: 4
[1]; 40 mg, Example 2b
  Serious TEAE related to melflufen: Diarrhoea: (5) %
  Serious TEAE related to melflufen: Diarrhoea, number of patients: 2
  Serious TEAE related to melflufen: Escherichia coli sepsis: (2.5) %
  Serious TEAE related to melflufen: Escherichia coli sepsis, number of patients: 1
  Serious TEAE related to melflufen: Febrile Neutropenia: (5) %
  Serious TEAE related to melflufen: Febrile Neutropenia, number of patients: 2
  Serious TEAE related to melflufen: Neutropenia: (5) %
  Serious TEAE related to melflufen: Neutropenia, number of patients: 2
  Serious TEAE related to melflufen: Pneumonia: (10) %
  Serious TEAE related to melflufen: Pneumonia, number of patients: 4
  Serious TEAE related to melflufen: Pyrexia: (5) %
  Serious TEAE related to melflufen: Pyrexia, number of patients: 2
  anemia, all grades, regardless of relationship: 65%
  asthenia, all grades, regardless of relationship: 35%
  diarrhoea, all grades, regardless of relationship: 25%
  nausea, all grades, regardless of relationship: 28%
  neutropenia, all grades, regardless of relationship: 65%
  pyrexia, all grades, regardless of relationship: 43%
  thrombocytopenia, all grades, regardless of relationship: 73%
[1]; 40 mg, Example 2b N = 40
  Anemia, treatment related ≥grade 3: 43%
  Any treatment-related grade 3 and/or grade 4, grade 4: (50) %
  Any treatment-related grade 3 and/or grade 4, ≥grade 3: 85%
  Asthenia, treatment related ≥grade 3: (5) %
  Blood and lymphatic system disorders, treatment related grade 4: (50) %
  Blood and lymphatic system disorders, treatment related ≥grade 3: (82.5) %
  Fatigue, treatment related ≥grade 3: (5) %
  Febrile neutropenia, treatment related ≥grade 3: (5) %
  General disorders and administration site conditions, treatment related ≥grade 3: (17.5) %
  Hyperglycemia, treatment related grade 4: (3) %
  Hyperglycemia, treatment related ≥grade 3: (8) %
  Infections and infestations, treatment related ≥grade 3: (5) %
  Investigations, treatment related ≥grade 3: (12.5) %
  Metabolism and nutrition disorders, treatment related grade 4: (3) %
  Metabolism and nutrition disorders, treatment related ≥grade 3: (8) %
  Neutropenia, treatment related grade 4: (30) %
  Neutropenia, treatment related ≥grade 3: 58%
  Neutrophil count decreased, treatment related ≥grade 3: (10) %
  Pneumonia, treatment related ≥grade 3: (5) %
  Pyrexia, treatment related ≥grade 3: (5) %
  Thrombocytopenia, treatment related grade 4: (40) %
  Thrombocytopenia, treatment related ≥grade 3: 63%
  White blood cell count decreased, treatment related ≥grade 3: (5) %
[1]; [5]
  Anemia, treatment related ≥grade 3: (43) %
  Any treatment-related grade 3 and/or grade 4, ≥grade 3: (85) %
  Neutropenia, treatment related ≥grade 3: (57.5) %
  Thrombocytopenia, treatment related ≥grade 3: (62.5) %
[1]; 40 mg, Example 2b, 40 patients
  patients with Serious TEAEs: 40%
  patients with treatment-related Serious TEAEs: 30%
[1]; 14 patients
  median number of cycles before discontinuation due to bone marrow suppression: 3.5 cycles
[1]; [6]
  Cycles with a dose interruption: (37) % of total
  Patients with a dose interruption: (57) % of total
  Patients with a dose reduction: (37) % of total
[1]; [7]
  Cycles with a dose interruption: (13) % of total
  Patients with a dose interruption: (30) % of total
  Patients with a dose reduction: (20) % of total
[1]; Example 2b
  incidence of Grade 3-4 pneumonia: 14%
  infectious adverse effects with fatal outcomes possibly related to the study treatments: 8%
  infectious adverse effects with fatal outcomes possibly related to the study treatments, n patients: 3
[1]; Example 2b, 40 patients
  patients with TEAEs leading to dose reduction of melflufen from 40 mg to 25 mg: 32.5%
[1]; MM patients, clinical trials
  effect on renal function: does not appear to have any effect on renal function
[1]; in the clinical trials
  reports of syncope, seizures, ventricular arrhythmias, ventricular tachycardia, ventricular fibrillation, flutter, torsade de pointes, or sudden deaths: no reports
[1]; [8]
  dose reductions in connection to both thrombocytopenia and neutropenia: 9%
  dose reductions in connection to both thrombocytopenia and neutropenia, n patients: 1
  dose reductions in connection to neutropenia: 27%
  dose reductions in connection to neutropenia, n patients: 3
  dose reductions in connection to thrombocytopenia: 64%
  dose reductions in connection to thrombocytopenia, n patients: 7
[1]; [9]
  treatment discontinuations due to treatment-related bone marrow suppression: 35%
  treatment discontinuations due to treatment-related bone marrow suppression, n patients: 14
[1]; of the 57 patients in the ongoing melflufen study
  fatal events while on treatment or within 30 days of last dose, n patients: 6
[2]
  cytotoxic activity in primary MM cells: Potent cytotoxic activity
